# From ChEMBL document CHEMBL1154859, “Structure of aldehyde reductase in ternary complex with a 5-arylidene-2,4-thiazolidinedione aldose reductase inhibitor” (Eur J Med Chem, 2010)
# Experiments:
# [1] = Ratio of IC50 for pig ALR1 to IC50 for calf ALR2
# [2] = target: T1, Aldo-keto reductase family 1 member A1 (Sus scrofa, UniProt P50578); assay: Inhibition of pig ALR1 assessed as decrease in NADPH absorbance by spectrophotometry
# T1 sequence (P50578 whole entry): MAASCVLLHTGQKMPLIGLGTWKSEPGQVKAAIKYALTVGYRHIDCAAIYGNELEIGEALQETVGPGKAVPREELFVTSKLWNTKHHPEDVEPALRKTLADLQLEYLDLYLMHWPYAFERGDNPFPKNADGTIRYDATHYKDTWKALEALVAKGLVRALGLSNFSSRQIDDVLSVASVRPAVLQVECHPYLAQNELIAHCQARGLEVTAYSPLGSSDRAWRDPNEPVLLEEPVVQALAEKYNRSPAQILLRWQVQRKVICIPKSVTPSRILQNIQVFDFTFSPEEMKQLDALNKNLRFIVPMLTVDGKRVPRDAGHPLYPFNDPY
structure (smiles),measurement,setting,value
COc1ccc(/C=C2\SC(=O)N(CC(=O)O)C2=O)cc1O,Ratio IC50,[1],56
same,IC50,[2],37 µM
